Measurements from patent publication US20080280288A1, “Assay Method to Predict Sensitivity of Cancer Cell to Anticancer Drug” (priority 2004, published 2008).
“Also recorded” adds a separate entry of the source.

Legend:
[1] = test system: BSY-1 (breast) human cancer cell line; experiment: BSY-1 subcutaneous xenograft in nude mice, relative tumor volume ratio; assay type: in vivo; settings: for Tumor volume ratio (T/C %): BSY-1 s.c. in nude mice, intravenously 10 mg/kg/day for five days
Experimental: (§1) The 25 human cancer cells proliferated in culture flasks or in the subcutaneous tissues of the nude mice were subcutaneously implanted to the bodysides of nude mice, and the mice were classified into a group of 5 control mice and a group of 5 treated mice of the compound 2 so that the average tumor volume of each group was uniform at the time of a tumor volume of 100 mm^3 or larger. The mice of the treated group were intravenously infused at 10 mg/kg/day for five days, and the mice of the control group were not treated or infused with the vehicle. The tumor volume was measured from day 1, subsequently measured over time on Day 5, 8, 12, 15, and a relative tumor volume ratio (T/C %)was estimated.
(§2) The cancer cells proliferated in culture flasks or in the subcutaneous tissues of the nude mice were subcutaneously implanted to the bodysides of nude mice, and the mice were classified into a group of 5 control mice and a group of 5 treated mice of the compounds so that the average tumor volume of each group was uniform at the time of a tumor volume of 100 mm^3 or larger. The mice of the treated group were intravenously infused at 10 mg/kg/day for five days, and the mice of the control group were not treated or infused with the vehicle. The tumor volume was measured from Day 1, and subsequently measured over time on Day 5, 8, 12, 15, and the relative tumor volume ratio was estimated. However, the experiment was basically discontinued at Day 15 in evaluation of the compound 1. In Table 2, the T/C % of the compounds 1, 2, 4 and the compound 2 in Example 2 to each cancer cell are shown.

[2] = test system: LC-6-JCK (NSCLC) human cancer cell line; experiment: LC-6-JCK subcutaneous xenograft in nude mice, relative tumor volume ratio; assay type: in vivo; settings: LC-6-JCK s.c. in nude mice; intravenously 10 mg/kg/day for five days
Experimental: as §1
(§3) The cancer cells proliferated in culture flasks or in the subcutaneous tissues of the nude mice were subcutaneously implanted to the bodysides of nude mice, and the mice were classified into a group of 5 control mice and a group of 5 treated mice of the compounds so that the average tumor volume of each group was uniform at the time of a tumor volume of 100 mm^3 or larger. The mice of the treated group were intravenously infused at 10 mg/kg/day for five days, and the mice of the control group were not treated or infused with the vehicle. The tumor volume was measured from Day 1, and subsequently measured over time on Day 5, 8, 12, 15, and the relative tumor volume ratio was estimated. […]

[3] = test system: PC-3 (prostate) human cancer cell line; experiment: PC-3 subcutaneous xenograft in nude mice, relative tumor volume ratio; assay type: in vivo; settings: PC-3 s.c. in nude mice; intravenously 10 mg/kg/day for five days
Experimental: as §1, §2

[4] = test system: FaDu (head & neck) human cancer cell line; experiment: FaDu subcutaneous xenograft in nude mice, relative tumor volume ratio; assay type: in vivo; settings: FaDu s.c. in nude mice; intravenously 10 mg/kg/day for five days
Experimental: as §1, §2

[5] = test system: WiDr (colorectal) human cancer cell line; experiment: WiDr subcutaneous xenograft in nude mice, relative tumor volume ratio; assay type: in vivo; settings: WiDr s.c. in nude mice; intravenously 10 mg/kg/day for five days
Experimental: as §1, §2

[6] = test system: DU145 (prostate) human cancer cell line; experiment: DU145 subcutaneous xenograft in nude mice, relative tumor volume ratio; assay type: in vivo; settings: DU145 s.c. in nude mice; intravenously 10 mg/kg/day for five days
Experimental: as §1, §2

[7] = test system: HT-29 (colorectal) human cancer cell line; experiment: HT-29 subcutaneous xenograft in nude mice, relative tumor volume ratio; assay type: in vivo; settings: HT-29 s.c. in nude mice; intravenously 10 mg/kg/day for five days
Experimental: as §1, §2

[8] = test system: SW620 (colorectal) human cancer cell line; experiment: SW620 subcutaneous xenograft in nude mice, relative tumor volume ratio; assay type: in vivo; settings: SW620 s.c. in nude mice; intravenously 10 mg/kg/day for five days
Experimental: as §1, §3

[9] = test system: human colon cancer cell line (WiDr); settings: reported in WO 03/099813 and related filings; cited from earlier work
[10] = test system: MDA-MB468 (breast) human cancer cell line; experiment: MDA-MB468 subcutaneous xenograft in nude mice, relative tumor volume ratio; assay type: in vivo; settings: MDA-MB468 s.c. in nude mice; intravenously 10 mg/kg/day for five days
Experimental: as §1

[11] = test system: OVCAR3 (ovarian) human cancer cell line; experiment: OVCAR3 subcutaneous xenograft in nude mice, relative tumor volume ratio; assay type: in vivo; settings: OVCAR3 s.c. in nude mice; intravenously 10 mg/kg/day for five days
Experimental: as §1, §3

[12] = test system: NCI-H146 (SCLC) human cancer cell line; experiment: NCI-H146 subcutaneous xenograft in nude mice, relative tumor volume ratio; assay type: in vivo
Experimental: as §1

[13] = test system: NCI-H69 (SCLC) human cancer cell line; experiment: NCI-H69 subcutaneous xenograft in nude mice, relative tumor volume ratio; assay type: in vivo; settings: NCI-H69 s.c. in nude mice; intravenously 10 mg/kg/day for five days
Experimental: as §1

[14] = test system: NCI-H526 (SCLC) human cancer cell line; experiment: NCI-H526 subcutaneous xenograft in nude mice, relative tumor volume ratio; assay type: in vivo
Experimental: as §1

[15] = test system: HBC4 (breast) human cancer cell line; experiment: HBC4 subcutaneous xenograft in nude mice, relative tumor volume ratio; assay type: in vivo; settings: HBC4 s.c. in nude mice; intravenously 10 mg/kg/day for five days
Experimental: as §1

[16] = test system: Lu99 (NSCLC) human cancer cell line; experiment: Lu99 subcutaneous xenograft in nude mice, relative tumor volume ratio; assay type: in vivo; settings: Lu99 s.c. in nude mice; intravenously 10 mg/kg/day for five days
Experimental: as §1

[17] = test system: NCI-H510 (SCLC) human cancer cell line; experiment: NCI-H510 subcutaneous xenograft in nude mice, relative tumor volume ratio; assay type: in vivo; settings: NCI-H510 s.c. in nude mice; intravenously 10 mg/kg/day for five days
Experimental: as §1

[18] = test system: NCI-H596 (NSCLC) human cancer cell line; experiment: NCI-H596 subcutaneous xenograft in nude mice, relative tumor volume ratio; assay type: in vivo; settings: NCI-H596 s.c. in nude mice; intravenously 10 mg/kg/day for five days
Experimental: as §1, §3

[19] = test system: KPL-4 (breast) human cancer cell line; experiment: KPL-4 subcutaneous xenograft in nude mice, relative tumor volume ratio; assay type: in vivo; settings: KPL-4 s.c. in nude mice; intravenously 10 mg/kg/day for five days
Experimental: as §1

[20] = test system: SK-OV-3 (ovarian) human cancer cell line; experiment: SK-OV-3 subcutaneous xenograft in nude mice, relative tumor volume ratio; assay type: in vivo; settings: SK-OV-3 s.c. in nude mice; intravenously 10 mg/kg/day for five days
Experimental: as §1

[21] = test system: MDA-MB435 (breast) human cancer cell line; experiment: MDA-MB435 subcutaneous xenograft in nude mice, relative tumor volume ratio; assay type: in vivo; settings: MDA-MB435 s.c. in nude mice; intravenously 10 mg/kg/day for five days
Experimental: as §1, §3

[22] = test system: NCI-H460 (NSCLC) human cancer cell line; experiment: NCI-H460 subcutaneous xenograft in nude mice, relative tumor volume ratio; assay type: in vivo; settings: for Tumor volume ratio (T/C %): NCI-H460 s.c. in nude mice, intravenously 10 mg/kg/day for five days
Experimental: as §1, §2

[23] = test system: KM12 (colorectal) human cancer cell line; experiment: KM12 subcutaneous xenograft in nude mice, relative tumor volume ratio; assay type: in vivo; settings: KM12 s.c. in nude mice; intravenously 10 mg/kg/day for five days
Experimental: as §1

[24] = test system: NCI-H522 (SCLC) human cancer cell line; experiment: NCI-H522 subcutaneous xenograft in nude mice, relative tumor volume ratio; assay type: in vivo; settings: NCI-H522 s.c. in nude mice; intravenously 10 mg/kg/day for five days
Experimental: as §1, §3

[25] = test system: DLD-1 (colorectal) human cancer cell line; experiment: DLD-1 subcutaneous xenograft in nude mice, relative tumor volume ratio; assay type: in vivo; settings: DLD-1 s.c. in nude mice; intravenously 10 mg/kg/day for five days
Experimental: as §1, §3

[26] = test system: Calu-1 (NSCLC) human cancer cell line; experiment: Calu-1 subcutaneous xenograft in nude mice, relative tumor volume ratio; assay type: in vivo; settings: Calu-1 s.c. in nude mice; intravenously 10 mg/kg/day for five days
Experimental: as §1

[27] = test system: human breast cancer cell line (BSY-1); settings: reported in WO 02/060890, WO 03/099813, WO 04/011661; cited from earlier work

SMILES	Tumor volume ratio (T/C %) [1]	Tumor volume ratio (T/C %) [2]	Tumor volume ratio (T/C %) [3]	Tumor volume ratio (T/C %) [4]	Tumor volume ratio (T/C %) [5]	Tumor volume ratio (T/C %) [6]	Tumor volume ratio (T/C %) [7]	Tumor volume ratio (T/C %) [8]	Antitumor activity to WiDr (in words) [9]	Tumor volume ratio (T/C %) [11]	Tumor volume ratio (T/C %) [18]	Tumor volume ratio (T/C %) [21]	Tumor volume ratio (T/C %) [22]	Tumor volume ratio (T/C %) [24]	Tumor volume ratio (T/C %) [25]	also measured
CCC(O)C(C)C1OC1CC(C)(O)/C=C/C=C(\C)C1OC(=O)CC(O)CCC(C)(O)C(OC(=O)N2CCN(C(C)C)CC2)/C=C/C1C (stereo not drawn) [Compound 3, (8E,12E,14E)-3,6,16,21-tetrahydroxy-7-((4-isopropylpiperazin-1-yl)carbonyl)oxy-6,10,12,16,20-pentamethyl-18,19-epoxytricosane-8,12,14-trien-11-olide]	2%	0%	4%	1%	4%	34%	26%	19%	antitumor activity	–	–	–	–	–	–	–
CCC(O)C(C)C1OC1CC(C)(O)/C=C/C=C(\C)C1OC(=O)CC(O)CCC(C)(O)C(OC(=O)N2CCN(C3CCCCCC3)CC2)/C=C/C1C (stereo not drawn) [Compound 2, (8E,12E,14E)-7-((4-cycloheptylpiperazin-1-yl)carbonyl)oxy-3,6,16,21-tetrahydroxy-6,10,12,16,20-pentamethyl-18,19-epoxytricosane-8,12,14-trien-11-olide]	0%	0%	2%	3%	4%	28%	28%	28%	–	0%	18%	28%	33%	42%	47%	Sensitivity of the cancer cell line to the compound (in words) ([1]; BSY-1 xenograft in nude mice): high sensitivity until remission; Tumor volume ratio (T/C %) [10]: 0%; Tumor volume ratio (T/C %) ([12]; NCI-H146 s.c. in nude mice, intravenously 10 mg/kg/day for five days): 1%; Course of the tumor (in words) ([12]; NCI-H146 xenograft in nude mice, tumor not eliminated): consecutive reduction of the tumor for a long term; Tumor volume ratio (T/C %) [13]: 1%; Sensitivity of the cancer cell line to the compound (in words) ([14]; H526 xenograft in nude mice): high sensitivity without remission; Tumor volume ratio (T/C %) ([14]; NCI-H526 s.c. in nude mice, intravenously 10 mg/kg/day for five days): 1%; Tumor volume ratio (T/C %) [15]: 5%; Tumor volume ratio (T/C %) [16]: 8%; Tumor volume ratio (T/C %) [17]: 10%; Tumor volume ratio (T/C %) [19]: 23%; Tumor volume ratio (T/C %) [20]: 27%; Sensitivity of the cancer cell line to the compound (in words) ([22]; H460 xenograft in nude mice): low sensitivity; Tumor volume ratio (T/C %) [23]: 34%; Tumor volume ratio (T/C %) [26]: 55%
CCC(O)C(C)C1OC1CC(C)/C=C/C=C(\C)C1OC(=O)CC(O)CCC(C)(O)C(OC(C)=O)/C=C/C1C (stereo not drawn) [Compound 1, (8E,12E,14E)-7-acetoxy-3,6,21-trihydroxy-6,10,12,16,20-pentamethyl-18,19-epoxytricosane-8,12,14-trien-11-olide]	0%	–	20%	33%	29%	26%	58%	–	–	23%	76%	50%	53%	64%	59%	Antitumor activity to BSY-1 (in words) [27]: high sensitivity; also recorded: high antitumor activity
CCC(O)C(C)C1OC1CC(C)(O)/C=C/C=C(\C)C1OC(=O)CC(O)CCC(C)(O)C(OC(=O)N2CCN(C)CC2)/C=C/C1C (stereo not drawn) [Compound 4, (8E,12E,14E)-3,6,16,21-tetrahydroxy-6,10,12,16,20-pentamethyl-7-((4-methylpiperazin-1-yl)-carbonyl)oxy-18,19-epoxytricosane-8,12,14-trien-11-olide]	–	–	3%	5%	7%	26%	46%	–	antitumor activity	–	–	–	–	–	–	–
